Results taken from PMC8338929, “Acetylation turns leucine into a drug by membrane transporter switching” (Scientific Reports, 2021).

Key:
human LAT1 (SLC7A5) = target: T1, human LAT1 (SLC7A5) (Homo sapiens, UniProt Q01650); assay: Inhibition of LAT1 uptake of probe substrate gabapentin in MDCK-II cells; format: cell-based; conditions: probe gabapentin 10 µM; positive control JPH203 10 µM
T1 construct: host or cells: MDCK-II
Procedure: (§1) Transport studies with human PepT1 (SLC15A1), LAT1 (SLC7A5) and MCT1 (SLC16A1) were conducted in MDCK-II cells expressing the human transporter or control cells expressing a vector with Green Fluorescence Protein. Cells were transfected using a proprietary, transient transfection system (OPTI-EXPRESSION Technology, BioIVT). The results from the control cells were used to correct for substrate permeation by routes other than the transporter being investigated in the study. […] Specifically, Net Transporter Mediated Substrate Uptake (pmol/min/cm^2) = (Cellular accumulation in the presence of the transporter) − (Mean cellular accumulation in the absence of the transporter). MDCK-II cells were maintained in DMEM with low glucose and 10% FBS. Cells were used at passages up to 40 were seeded at 60,000 ± 10,000 cells/well on 96-well plates approximately 24 h before transfection, and transport assays were performed approximately 48 h after transfection. […]
(§2) Transport studies with PepT1 were conducted in 96-well cell culture plate with wells containing a monolayer of MDCK-II cells grown on a permeable support and a corresponding 96-well receiver tray. […] Then a 30-µL sample was taken and mixed with 200 µL of scintillation fluid and scintillation counted (1450 Microbeta, Perkin-Elmer). […]

human PepT1 (SLC15A1) = target: T2, human PepT1 (SLC15A1) (Homo sapiens, UniProt P46059); assay: Inhibition of PepT1 uptake of probe substrate Gly-Sar in MDCK-II cells; format: cell-based; conditions: probe Gly-Sar 50 µM; positive control losartan 200 µM; pH 5.5
T2 construct: host or cells: MDCK-II
T2 sequence (P46059 1-708): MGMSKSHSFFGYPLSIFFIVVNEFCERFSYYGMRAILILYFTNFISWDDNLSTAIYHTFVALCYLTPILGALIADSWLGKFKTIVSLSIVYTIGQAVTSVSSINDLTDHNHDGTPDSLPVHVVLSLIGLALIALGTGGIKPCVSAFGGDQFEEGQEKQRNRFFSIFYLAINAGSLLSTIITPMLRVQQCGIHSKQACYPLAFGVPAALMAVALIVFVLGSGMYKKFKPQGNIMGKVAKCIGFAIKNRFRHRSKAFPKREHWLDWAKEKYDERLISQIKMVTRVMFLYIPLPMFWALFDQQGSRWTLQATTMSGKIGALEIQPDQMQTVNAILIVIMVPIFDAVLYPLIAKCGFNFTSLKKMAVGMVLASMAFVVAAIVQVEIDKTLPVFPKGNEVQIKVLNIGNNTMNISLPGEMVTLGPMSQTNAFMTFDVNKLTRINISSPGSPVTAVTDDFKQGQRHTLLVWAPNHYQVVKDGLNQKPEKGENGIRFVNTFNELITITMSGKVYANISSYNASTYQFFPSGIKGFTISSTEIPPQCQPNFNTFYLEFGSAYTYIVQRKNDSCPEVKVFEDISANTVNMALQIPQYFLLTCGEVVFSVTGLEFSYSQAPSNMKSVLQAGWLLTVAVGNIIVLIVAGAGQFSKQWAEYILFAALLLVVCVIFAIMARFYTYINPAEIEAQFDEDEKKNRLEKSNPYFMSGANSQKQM
Procedure: as §1, §2

T1 sequence (Q01650 whole entry): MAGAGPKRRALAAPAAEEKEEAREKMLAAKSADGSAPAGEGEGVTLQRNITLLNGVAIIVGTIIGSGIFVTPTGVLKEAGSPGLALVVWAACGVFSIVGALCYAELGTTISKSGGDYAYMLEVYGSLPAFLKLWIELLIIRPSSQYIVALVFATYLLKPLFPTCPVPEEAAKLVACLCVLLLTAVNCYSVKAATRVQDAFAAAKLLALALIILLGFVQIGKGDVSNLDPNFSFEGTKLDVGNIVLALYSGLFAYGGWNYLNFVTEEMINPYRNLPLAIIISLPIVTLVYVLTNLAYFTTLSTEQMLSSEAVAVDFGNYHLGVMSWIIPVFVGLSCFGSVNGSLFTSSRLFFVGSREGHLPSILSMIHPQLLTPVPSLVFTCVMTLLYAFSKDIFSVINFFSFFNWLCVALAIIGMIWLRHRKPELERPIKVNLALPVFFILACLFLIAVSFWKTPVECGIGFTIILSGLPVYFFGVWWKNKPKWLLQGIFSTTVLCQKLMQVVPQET
T1 sequence (P08195 102-630 partner): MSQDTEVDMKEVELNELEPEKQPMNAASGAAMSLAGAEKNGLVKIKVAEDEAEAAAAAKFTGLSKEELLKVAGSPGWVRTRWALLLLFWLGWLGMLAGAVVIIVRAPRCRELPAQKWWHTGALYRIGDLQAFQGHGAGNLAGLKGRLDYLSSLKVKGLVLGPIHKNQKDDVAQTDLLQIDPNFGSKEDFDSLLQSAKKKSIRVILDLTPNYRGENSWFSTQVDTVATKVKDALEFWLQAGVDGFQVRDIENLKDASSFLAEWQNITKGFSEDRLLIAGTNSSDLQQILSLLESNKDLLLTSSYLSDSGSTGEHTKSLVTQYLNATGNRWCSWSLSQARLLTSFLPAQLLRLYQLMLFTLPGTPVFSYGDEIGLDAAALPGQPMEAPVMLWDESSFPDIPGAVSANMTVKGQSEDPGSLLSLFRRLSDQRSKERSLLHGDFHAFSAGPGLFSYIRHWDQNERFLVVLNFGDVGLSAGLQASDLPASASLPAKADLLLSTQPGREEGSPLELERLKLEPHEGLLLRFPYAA

- inhibitor of LAT1 (human LAT1 (SLC7A5)): nor an inhibitor
- IC50 (human PepT1 (SLC15A1)): 740 µM
Compound: CC(=O)N[C@@H](CC(C)C)C(=O)O [N-acetyl-L-leucine]
